Laboratory results: article PMC9411207, “Designed peptides as nanomolar cross-amyloid inhibitors acting via supramolecular nanofiber co-assembly” (Nature Communications, 2022)
Where two headings read alike, the source gives them in different places. Square brackets hold non-standard residues; d marks the D form. Peptide text beside a SMILES is read from it. NMeF = CN[C@@H](Cc1ccccc1)C(=O)O; NMeL = CN[C@@H](CC(C)C)C(=O)O; NMeV = CN[C@H](C(=O)O)C(C)C; Nle = CCCC[C@H](N)C(=O)O

Tests used:
[1] = test system: PC12 cells; test: MTT reduction assay: cytotoxicity of preformed (TAMRA-)Aβ42 oligomers with or without Nle3-VF; format: cell-based; settings: TAMRA-oAb42 (2 h); mean, n = 4
Protocol: Preformed (TAMRA-)oAβ42 and their mixtures with Nle3-VF were then incubated for an additional 2 h (37 °C, shaking 500 rpm; conditions as for the ThT binding assay). Incubation with the cells and the MTT reduction assay were performed as above. Statistical analysis (Supplementary Fig. 27d) was performed by one-way ANOVA and Bonferroni (software: OriginPro 2021).

[2] = target: T1, N-terminal fluorescein-labeled IAPP (Homo sapiens, UniProt P10997); test: Fluorescence spectroscopic titration of Fluos-IAPP with ACMs; format: binding
T1 construct: made in house; host or cells: chemical synthesis (Fmoc-SPPS)
T1 sequence (P10997 34-70 limits assumed): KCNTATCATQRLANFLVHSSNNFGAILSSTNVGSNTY
Protocol: (§1) Fluorescence spectroscopic studies were performed with a Jasco FP-6500 fluorescence spectrophotometer (software: Spectra Manager V1.54.03 (Build 1)) using previously established protocols[12],[20],[25],[26],[32]. Briefly, excitation was at 492 nm and spectra were measured between 500 and 600 nm. All titrations were performed in freshly made solutions of synthetic N-terminal fluorescently-labeled peptide (5 nM) and various amounts of unlabeled peptide in 10 mM sodium phosphate buffer, pH 7.4 (1% HFIP) within 2–5 min following solution preparation as described in refs. [20], [25], [26]. Under these experimental conditions, freshly made solutions of Fluos-IAPP and FITC-Aβ42 (5 nM) consist mostly of monomers[25],[26],[32] and the same was found for Fluos-ACMs (5 nM) (e.g., Supplementary Fig. 5e). Apparent binding affinities (app. KDs) were estimated by using 1/1 binding models (software: OriginPro 2016G, Origin 2021, and GraFit (v.5)) as described in refs. [20], [25], [26], [32]. However, due to the high self-assembly propensities of involved peptides, more complex models might also apply. Determined app. KDs are means (±SD) from three binding curves derived from three independent titration assays.

[3] = target: T2, N-terminal FITC-labeled Aβ42 (Homo sapiens, UniProt P05067); test: Fluorescence spectroscopic titration of FITC-Aβ42 with ACMs; format: binding
T2 construct: the 40(42)-residue peptide Aβ40(42); purchased Bachem
T2 sequence (P05067 672-713 limits assumed): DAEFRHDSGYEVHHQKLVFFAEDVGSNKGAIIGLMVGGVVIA
Protocol: as §1

[4] = test system: RIN5fm cells; test: MTT reduction assay: effects of peptides on formation of cell-damaging IAPP assemblies (incl. IC50 titrations); format: cell-based, rat; settings: for IC50: 24 h; for effect on IAPP cytotoxicity (in words): MTT reduction in RIN5fm cells, solutions of the ThT assay
Protocol: Briefly, cells were cultivated and platted in 96-well plates as described in ref. [68]. Aliquots of solutions used for the ThT binding assays (see “ThT binding assays”) were diluted with cell medium at the indicated incubation time points (24 h or 7 days) and added to the cells at the indicated final concentrations. Following incubation with the cells for ~20 h (37 °C, humidified atmosphere, 5% CO2), cell damage was assessed by measuring cellular MTT reduction as described[32],[68]. IC50 values were determined as described[20],[21],[32].

[5] = app. KD (±SD) of ACM/Aβ42 interactions, titration of FITC-Aβ42 (5 nM; pH 7.4) with ACMs, means (±SD) from three binding curves
[6] = SF 6, Mean values of the 3 curves, read-out: App. Kd
[7] = Table 2, mean values of the 3 curves, read-out: App. Kd
[8] = titration of Fluos-IAPP (5 nM; pH 7.4, 10 mM sodium phosphate, 1% HFIP) with ACMs, 1/1 binding model, means (±SD) from three binding curves

Compound	MTT reduction (% control) [1] [% control]	Kd ([2]; Fig. 2a right panel, mean values of the 3 curves, read-out: App. Kd) [nM]	Kd [3, 5] [nM]	Kd ([3]; fluorescence titration, emission at 519 nm, Mean values of the 3 curves, read-out: App. Kd) [nM]	IC50 [4] [nM]	effect on IAPP cytotoxicity (in words) [4]	Kd [2] [nM]	Kd [2, 6] [nM]	Kd [3, 7] [nM]	Kd [2, 8] [nM]
TAMRA-oAb42	66.7213									
CCCC[C@H](NC(=O)[C@H](CC(=O)O)NC(=O)[C@H](CCC(=O)O)NC(=O)[C@H](C)NC(=O)[C@H](Cc1ccccc1)N(C)C(=O)[C@H](Cc1ccccc1)NC(=O)[C@H](C(C)C)N(C)C(=O)[C@H](CC(C)C)NC(=O)[C@H](CCCCN)NC(=O)[C@@H](N)CCC(N)=O)C(=O)N[C@@H](CCCC)C(=O)N[C@@H](CCCC)C(=O)N[C@@H](CC(N)=O)C(=O)N[C@@H](CCCCN)C(=O)NCC(=O)N[C@@H](C)C(=O)N[C@H](C(=O)N[C@H](C(=O)NCC(=O)N[C@@H](CC(C)C)C(=O)N[C@@H](CCCC)C(=O)N[C@H](C(=O)NCC(=O)NCC(=O)N[C@H](C(=O)N[C@H](C(=O)O)C(C)C)C(C)C)C(C)C)[C@@H](C)CC)[C@@H](C)CC [Nle3-VF] (H-QKL[NMeV]F[NMeF]AED[Nle][Nle][Nle]NKGAIIGL[Nle]VGGVV-OH)		69.5	14.5	14.5	65	fully suppressed				
CCCC[C@H](NC(=O)[C@H](CC(=O)O)NC(=O)[C@H](CCC(=O)O)NC(=O)[C@H](C)NC(=O)[C@H](Cc1ccccc1)NC(=O)[C@H](Cc1ccccc1)N(C)C(=O)[C@@H](NC(=O)[C@H](CC(C)C)N(C)C(=O)[C@H](CCCCN)NC(=O)[C@@H](N)CCC(N)=O)C(C)C)C(=O)N[C@@H](CCCC)C(=O)N[C@@H](CCCC)C(=O)N[C@@H](CC(N)=O)C(=O)N[C@@H](CCCCN)C(=O)NCC(=O)N[C@@H](C)C(=O)N[C@H](C(=O)N[C@H](C(=O)NCC(=O)N[C@@H](CC(C)C)C(=O)N[C@@H](CCCC)C(=O)N[C@H](C(=O)NCC(=O)NCC(=O)N[C@H](C(=O)N[C@H](C(=O)O)C(C)C)C(C)C)C(C)C)[C@@H](C)CC)[C@@H](C)CC [Nle3-LF] (H-QK[NMeL]V[NMeF]FAED[Nle][Nle][Nle]NKGAIIGL[Nle]VGGVV-OH)			11.1		82.1	fully suppressed	55.4	55.4	11.1	
CCCC[C@H](NC(=O)[C@H](CC(C)C)NC(=O)CNC(=O)[C@@H](NC(=O)[C@@H](NC(=O)[C@H](C)NC(=O)CNC(=O)[C@H](CCCCN)NC(=O)[C@H](CC(N)=O)NC(=O)[C@H](CC(C)C)NC(=O)[C@H](CC(C)C)NC(=O)[C@H](CC(C)C)NC(=O)[C@H](CC(=O)O)NC(=O)[C@H](CCC(=O)O)NC(=O)[C@H](C)NC(=O)[C@H](Cc1ccccc1)N(C)C(=O)[C@H](Cc1ccccc1)NC(=O)[C@H](C(C)C)N(C)C(=O)[C@H](CC(C)C)NC(=O)[C@H](CCCCN)NC(=O)[C@@H](N)CCC(N)=O)[C@@H](C)CC)[C@@H](C)CC)C(=O)N[C@H](C(=O)NCC(=O)NCC(=O)N[C@H](C(=O)N[C@H](C(=O)O)C(C)C)C(C)C)C(C)C [L3-VF] (H-QKL[NMeV]F[NMeF]AEDLLLNKGAIIGL[Nle]VGGVV-OH)			38		112			77.3	38	77.3
CCCC[C@H](NC(=O)[C@H](CC(C)C)NC(=O)CNC(=O)[C@@H](NC(=O)[C@@H](NC(=O)[C@H](C)NC(=O)CNC(=O)[C@H](CCCCN)NC(=O)[C@H](CC(N)=O)NC(=O)[C@H](CC(C)C)NC(=O)[C@H](CC(C)C)NC(=O)[C@H](CC(C)C)NC(=O)[C@H](CC(=O)O)NC(=O)[C@H](CCC(=O)O)NC(=O)[C@H](C)NC(=O)[C@H](Cc1ccccc1)NC(=O)[C@H](Cc1ccccc1)N(C)C(=O)[C@@H](NC(=O)[C@H](CC(C)C)N(C)C(=O)[C@H](CCCCN)NC(=O)[C@@H](N)CCC(N)=O)C(C)C)[C@@H](C)CC)[C@@H](C)CC)C(=O)N[C@H](C(=O)NCC(=O)NCC(=O)N[C@H](C(=O)N[C@H](C(=O)O)C(C)C)C(C)C)C(C)C [L3-LF] (H-QK[NMeL]V[NMeF]FAEDLLLNKGAIIGL[Nle]VGGVV-OH)					133	fully suppressed		143	2.64	
CCCC[C@H](NC(=O)[C@H](CC(C)C)NC(=O)CNC(=O)[C@@H](NC(=O)[C@@H](NC(=O)[C@H](C)NC(=O)CNC(=O)[C@H](CCCCN)NC(=O)[C@H](CC(N)=O)NC(=O)[C@H](Cc1ccccc1)NC(=O)[C@H](Cc1ccccc1)NC(=O)[C@H](Cc1ccccc1)NC(=O)[C@H](CC(=O)O)NC(=O)[C@H](CCC(=O)O)NC(=O)[C@H](C)NC(=O)[C@H](Cc1ccccc1)NC(=O)[C@H](Cc1ccccc1)N(C)C(=O)[C@@H](NC(=O)[C@H](CC(C)C)N(C)C(=O)[C@H](CCCCN)NC(=O)[C@@H](N)CCC(N)=O)C(C)C)[C@@H](C)CC)[C@@H](C)CC)C(=O)N[C@H](C(=O)NCC(=O)NCC(=O)N[C@H](C(=O)N[C@H](C(=O)O)C(C)C)C(C)C)C(C)C [F3-LF] (H-QK[NMeL]V[NMeF]FAEDFFFNKGAIIGL[Nle]VGGVV-OH)			431		41.7			37.6	431	37.6
CCCC[C@H](NC(=O)[C@H](CC(C)C)NC(=O)CNC(=O)[C@@H](NC(=O)[C@@H](NC(=O)[C@H](C)NC(=O)CNC(=O)[C@H](CCCCN)NC(=O)[C@H](CC(N)=O)NC(=O)[C@H](Cc1ccccc1)NC(=O)[C@H](Cc1ccccc1)NC(=O)[C@H](Cc1ccccc1)NC(=O)[C@H](CC(=O)O)NC(=O)[C@H](CCC(=O)O)NC(=O)[C@H](C)NC(=O)[C@H](Cc1ccccc1)N(C)C(=O)[C@H](Cc1ccccc1)NC(=O)[C@H](C(C)C)N(C)C(=O)[C@H](CC(C)C)NC(=O)[C@H](CCCCN)NC(=O)[C@@H](N)CCC(N)=O)[C@@H](C)CC)[C@@H](C)CC)C(=O)N[C@H](C(=O)NCC(=O)NCC(=O)N[C@H](C(=O)N[C@H](C(=O)O)C(C)C)C(C)C)C(C)C [F3-VF] (H-QKL[NMeV]F[NMeF]AEDFFFNKGAIIGL[Nle]VGGVV-OH)			161		78.5			15	161	15
